Data reported in patent US20240217978A1 (CHONG KUN DANG PHARMACEUTICAL CORP., priority 2021, published 2024).

Molecular target: human adenosine A2a receptor (Homo sapiens (Human), UniProt P29274)
Assay: A2a receptor binding affinity, [3H]-NECA radioligand binding test
Settings: [3H]-NECA 37 nM; membrane from HEK-293 cells transfected with human adenosine A2a receptor
Method in brief: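 IC50 values (μM) come from displacement of [3H]-NECA, used at 37 nM final, on human A2a receptor membranes from transfected HEK-293 cells. Incubation lasted one hour at room temperature in Tris/MgCl2/EDTA buffer, pH 7.4; filter-bound radioactivity was counted by scintillation.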

human adenosine A2a receptor, sequence (P29274 whole entry): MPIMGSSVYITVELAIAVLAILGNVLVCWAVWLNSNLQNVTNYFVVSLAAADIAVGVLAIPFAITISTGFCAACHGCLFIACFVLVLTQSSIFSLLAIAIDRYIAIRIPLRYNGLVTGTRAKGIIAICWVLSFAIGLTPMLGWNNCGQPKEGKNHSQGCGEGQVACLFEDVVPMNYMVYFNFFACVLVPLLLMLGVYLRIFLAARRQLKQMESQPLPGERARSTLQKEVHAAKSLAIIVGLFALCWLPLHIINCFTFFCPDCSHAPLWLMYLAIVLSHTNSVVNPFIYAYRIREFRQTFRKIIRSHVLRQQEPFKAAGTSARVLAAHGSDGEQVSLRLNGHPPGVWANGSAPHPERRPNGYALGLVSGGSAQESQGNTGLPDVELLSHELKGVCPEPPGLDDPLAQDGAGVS

SMILES | IC50 [nM]
Nc1nc(N2CCC[C@H]2C(=O)N2CCC(F)(F)CC2)nc2nc(-c3ccco3)nn12 [Example 55, (S)-(1-(7-amino-2-(furan-2-yl)-[1,2,4]triazolo[1,5-a][1,3,5]triazin-5-yl)pyrrolidin-2-yl)(4,4-difluoropiperidin-1-yl)methanone] | 16
Nc1nc(N[C@@H](CO)C(=O)N2CCN(c3ccccc3)C(=O)C2)nc2nc(-c3ccco3)nn12 [Example 234] | 12
Nc1nc(N2CCC[C@H]2C(=O)N2CCN(c3ccc(F)cc3)CC2)nc2nc(-c3ccco3)nn12 [Example 121, (S)-(1-(7-amino-2-(furan-2-yl)-[1,2,4]triazolo[1,5-a][1,3,5]triazin-5-yl)pyrrolidin-2-yl)(4-(4-fluorophenyl)piperazin-1-yl)methanone] | 6
Nc1nc(N2CCC[C@H]2C(=O)N2CCN(S(=O)(=O)CCOc3ccccc3)CC2)nc2nc(-c3ccco3)nn12 [Example 70, (S)-(1-(7-amino-2-(furan-2-yl)-[1,2,4]triazolo[1,5-a][1,3,5]triazin-5-yl)pyrrolidin-2-yl)(4-((2-phenoxyethyl)sulfonyl)piperazin-1-yl)methanone] | 4
CC(C)[C@H](Nc1nc(N)n2nc(-c3ccco3)nc2n1)C(=O)N1CCN(CC(C)(C)F)CC1 [Example 59, (S)-2-((7-amino-2-(furan-2-yl)-[1,2,4]triazolo[1,5-a][1,3,5]triazin-5-yl)amino)-1-(4-(2-fluoro-2-methylpropyl)piperazin-1-yl)-3-methylbutan-1-one] | 7
Nc1nc(N2CCC[C@H]2C(=O)N2CCN(C(=O)C3CCC(O)CC3)CC2)nc2nc(-c3ccco3)nn12 (stereo partly drawn) [Example 230] | 6
Nc1nc(N2CCC[C@H]2C(=O)N2CCN(C(=O)CO)CC2)nc2nc(-c3ccco3)nn12 [Example 237, 1-(4-((7-amino-2-(furan-2-yl)-[1,2,4]triazolo[1,5-a][1,3,5]triazin-5-yl)-L-prolyl)piperazin-1-yl)-2-hydroxyethan-1-one] | 8
Nc1nc(N[C@H](C(=O)N2CCN(Cc3ccc(F)cc3F)CC2)c2ccccc2)nc2nc(-c3ccco3)nn12 [Example 14, (S)-2-((7-amino-2-(furan-2-yl)-[1,2,4]triazolo[1,5-a][1,3,5]triazin-5-yl)amino)-1-(4-(2,4-difluorobenzyl)piperazin-1-yl)-2-phenylethan-1-one] | 0.368
Nc1nc(N2CCC[C@H]2C(=O)N2C3CCC2CN(C(=O)Nc2ccccc2)C3)nc2nc(-c3ccco3)nn12 [Example 180, 8-((7-amino-2-(furan-2-yl)-[1,2,4]triazolo[1,5-a][1,3,5]triazin-5-yl)-L-prolyl)-N-phenyl-3,8-diazabicyclo[3.2.1]octane-3-carboxamide] | 7
CCC(O)(CC)CN1CCN(C(=O)[C@@H]2CCCN2c2nc(N)n3nc(-c4ccc(C)o4)nc3n2)CC1 [Example 88, (S)-(1-(7-amino-2-(5-methylfuran-2-yl)-[1,2,4]triazolo[1,5-a][1,3,5]triazin-5-yl)pyrrolidin-2-yl)(4-(2-ethyl-2-hydroxybutyl)piperazin-1-yl) methanone] | 12
CC(C)[C@H](Nc1nc(N)n2nc(-c3ccco3)nc2n1)C(=O)N1CCN(Cc2ccc(F)cc2F)CC1 [Example 57, (S)-2-((7-amino-2-(furan-2-yl)-[1,2,4]triazolo[1,5-a][1,3,5]triazin-5-yl)amino)-1-(4-(2,4-difluorobenzyl)piperazin-1-yl)-3-methylbutan-1-one] | 7
CC(C)(F)C(=O)N1CCN(C(=O)[C@@H]2CCCN2c2nc(N)n3nc(-c4ccco4)nc3n2)CC1 [Example 85, 1-(4-((7-amino-2-(furan-2-yl)-[1,2,4]triazolo[1,5-a][1,3,5]triazin-5-yl)-L-prolyl)piperazin-1-yl)-2-fluoro-2-methylpropan-1-one] | 28
Nc1nc(N[C@H](C(=O)N2CCN(c3ccc(F)cc3F)CC2)C2CCCCC2)nc2nc(-c3ccco3)nn12 [Example 11, (S)-2-((7-amino-2-(furan-2-yl)-[1,2,4]triazolo[1,5-a][1,3,5]triazin-5-yl)amino)-2-cyclohexyl-1-(4-(2,4-difluorophenyl)piperazin-1-yl)ethan-1-one] | 0.1
Nc1nc(N2CCC[C@H]2C(=O)N2CCN(c3ccc(C(F)(F)F)cc3F)CC2)nc2nc(-c3ccco3)nn12 [Example 149, (S)-(1-(7-amino-2-(furan-2-yl)-[1,2,4]triazolo[1,5-a][1,3,5]triazin-5-yl)pyrrolidin-2-yl)(4-(2-fluoro-4-(trifluoromethyl)phenyl)piperazin-1-yl)methanone] | 0.5
Nc1nc(N2C[C@H](O)C[C@H]2C(=O)N2CCN(c3ccc(F)cc3F)CC2)nc2nc(-c3ccco3)nn12 [Example 37] | 12
Nc1nc(N2CCC[C@@H]2C(=O)N2CCN(Cc3ccc(F)cc3F)CC2)nc2nc(-c3ccco3)nn12 [Example 96, (R)-(1-(7-amino-2-(furan-2-yl)-[1,2,4]triazolo[1,5-a][1,3,5]triazin-5-yl)pyrrolidin-2-yl)(4-(2,4-difluorobenzyl)piperazin-1-yl)methanone] | 1630
CC[C@H](Nc1nc(N)n2nc(-c3ccco3)nc2n1)C(=O)N1CCN(c2nccs2)CC1 [Example 248, (S)-2-((7-amino-2-(furan-2-yl)-[1,2,4]triazolo[1,5-a][1,3,5]triazin-5-yl)amino)-1-(4-(thiazol-2-yl)piperazin-1-yl)butan-1-one] | 13
Cc1ccc(-c2nc3nc(N4CCC[C@H]4C(=O)N4CCN(c5ccccc5)CC4)nc(N)n3n2)o1 [Example 199, (S)-(1-(7-amino-2-(5-methylfuran-2-yl)-[1,2,4]triazolo[1,5-a][1,3,5]triazin-5-yl)pyrrolidin-2-yl)(4-phenylpiperazin-1-yl)methanone] | 2

The next lines start with the values.

IC50 [nM] | SMILES
30 | COC[C@H](Nc1nc(N)n2nc(-c3ccco3)nc2n1)C(=O)N1CCN(CC(F)(F)F)CC1 [Example 306, (S)-2-((7-amino-2-(furan-2-yl)-[1,2,4]triazolo[1,5-a][1,3,5]triazin-5-yl)amino)-3-methoxy-1-(4-(2,2,2-trifluoroethyl)piperazin-1-yl)propan-1-one]
16 | Cc1ccc(-c2nc3nc(N4CC[C@H]4C(=O)N4CCN(C(=O)CC(C)(C)O)CC4)nc(N)n3n2)o1 [Example 315, (S)-1-(4-(1-(7-amino-2-(5-methylfuran-2-yl)-[1,2,4]triazolo[1,5-a][1,3,5]triazin-5-yl)azetidine-2-carbonyl)piperazin-1-yl)-3-hydroxy-3-methylbutan-1-one]
9 | Nc1nc(N2CCC[C@H]2C(=O)N2CCN(CCC(F)(F)F)CC2)nc2nc(-c3ccco3)nn12 [Example 281, (S)-(1-(7-amino-2-(furan-2-yl)-[1,2,4]triazolo[1,5-a][1,3,5]triazin-5-yl)pyrrolidin-2-yl)(4-(3,3,3-trifluoropropyl)piperazin-1-yl) methanone]
10 | CC[C@H](Nc1nc(N)n2nc(-c3ccco3)nc2n1)C(=O)N1CCN(CC(C)(F)F)CC1 [Example 356, (S)-2-((7-amino-2-(furan-2-yl)-[1,2,4]triazolo[1,5-a][1,3,5]triazin-5-yl)amino)-1-(4-(2,2-difluoropropyl)piperazin-1-yl)butan-1-one]
10 | Nc1nc(N2CC[C@H]2C(=O)N2CCC(CN3CCC(C(F)(F)F)CC3)CC2)nc2nc(-c3ccco3)nn12 [Example 402, (S)-(1-(7-amino-2-(furan-2-yl)-[1,2,4]triazolo[1,5-a][1,3,5]triazin-5-yl)azetidin-2-yl)(4-((4-(trifluoromethyl)piperidin-1-yl)methyl)piperidin-1-yl)methanone]
3 | Nc1nc(N2CCC[C@H]2C(=O)N2CCC(C3CCN(CC(F)F)CC3)CC2)nc2nc(-c3ccco3)nn12 [Example 287, (S)-(1-(7-amino-2-(furan-2-yl)-[1,2,4]triazolo[1,5-a][1,3,5]triazin-5-yl)pyrrolidin-2-yl)(1′-(2,2-difluoroethyl)-[4,4′-bipiperidin]-1-yl)methanone]
9 | Nc1nc(N2CCC[C@H]2C(=O)N2CCC(C3CCN(CC(F)(F)C(F)F)CC3)CC2)nc2nc(-c3ccco3)nn12 [Example 289, (S)-(1-(7-amino-2-(furan-2-yl)-[1,2,4]triazolo[1,5-a][1,3,5]triazin-5-yl)pyrrolidin-2-yl)(1′-(2,2,3,3-tetrafluoropropyl)-[4,4′-bipiperidin]-1-yl)methanone]
19 | Cc1ccc(-c2nc3nc(N4CC[C@H]4C(=O)N4CCN(CC(C)(F)F)CC4)nc(N)n3n2)o1 [Example 314, (S)-(1-(7-amino-2-(5-methylfuran-2-yl)-[1,2,4]triazolo[1,5-a][1,3,5]triazin-5-yl)azetidin-2-yl)(4-(2,2-difluoropropyl)piperazin-1-yl)methanone]
10.8 | CC(C)(O)C(=O)N1CCN(C(=O)[C@@H]2CCN2c2nc(N)n3nc(-c4ccco4)nc3n2)CC1 [Example 267, (S)-1-(4-(1-(7-amino-2-(furan-2-yl)-[1,2,4]triazolo[1,5-a][1,3,5]triazin-5-yl)azetidine-2-carbonyl)piperazin-1-yl)-2-hydroxy-2-methylpropan-1-one]
74 | C[C@H](Nc1nc(N)c2nc(-c3ccco3)sc2n1)C(=O)N1CCN(C(=O)CC(C)(C)O)CC1 [Example 340, 1-(4-((7-amino-2-(furan-2-yl)thiazolo[5,4-d]pyrimidin-5-yl)-L-alanyl)piperazin-1-yl)-3-hydroxy-3-methylbutan-1-one]
2 | Cc1ccc(-c2nc3nc(N4CC[C@H]4C(=O)N4CCN(CC(F)(F)C(F)F)CC4)nc(N)n3n2)o1 [Example 312, (S)-(1-(7-amino-2-(5-methylfuran-2-yl)-[1,2,4]triazolo[1,5-a][1,3,5]triazin-5-yl)azetidin-2-y1)(4-(2,2,3,3-tetrafluoropropyl)piperazin-1-yl)methanone]
5 | CC(C)(O)CC(=O)N1CCN(C(=O)[C@@H]2CCCN2c2nc(N)c3nc(-c4ccco4)sc3n2)CC1 [Example 262, 1-(4-((7-amino-2-(furan-2-yl)thiazolo[5,4-d]pyrimidin-5-yl)-L-prolyl)piperazin-1-yl)-3-hydroxy-3-methylbutan-1-one]
